According to patent US7521478B2, “Total synthesis of myriaporones” (Pharma Mar, S.A.U., priority 2002, dated 2009):
Where two headings read alike, the source gives them in different places.

How the values were obtained:
Type in all cases: cell-based
HeLa-APL = test: Inhibition of cell growth by colorimetric SRB assay, HELA-APL; conditions: Homo sapiens; for CC50: HELA-APL, 48 hours exposure, cell killing, read-out: LC50 (the source's name)
Procedure, shortened: (§1)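 Absorbance of solubilized bound SRB (490 nm) quantified cell growth and viability after cells were exposed to compound for 48 h. Seeding was 5×10^3 cells per well in RPMI 1640/10% FBS, with 18 h attachment beforehand. GI, TGI and LC were calculated from means of triplicate wells.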

HT-29 = test: Inhibition of cell growth by colorimetric SRB assay, HT-29; conditions: Homo sapiens; for IC (total growth inhibition): read-out: TGI
Procedure, shortened: as §1

LoVo = test: Inhibition of cell growth by colorimetric SRB assay, LOVO; conditions: Homo sapiens; for LC50: read-out: LC50; for IC (total growth inhibition): read-out: TGI
Procedure, shortened: as §1

PANC-1 = test: Inhibition of cell growth by colorimetric SRB assay, PANC-1; conditions: Homo sapiens; for IC (total growth inhibition): read-out: TGI
Procedure, shortened: as §1

A-549 = test: Inhibition of cell growth by colorimetric SRB assay, A-549; conditions: Homo sapiens; for IC (total growth inhibition): read-out: TGI
Procedure, shortened: as §1

SK-MEL-28 = test: Inhibition of cell growth by colorimetric SRB assay, MEL-28; conditions: Homo sapiens; for IC (total growth inhibition): read-out: TGI
Procedure, shortened: as §1

HeLa = test: Inhibition of cell growth by colorimetric SRB assay, HELA; conditions: Homo sapiens; for IC (total growth inhibition): read-out: TGI
Procedure, shortened: as §1

LNCaP = test: Inhibition of cell growth by colorimetric SRB assay, LN-caP; conditions: Homo sapiens; for IC (total growth inhibition): read-out: TGI
Procedure, shortened: as §1

LoVo-Dox = test: Inhibition of cell growth by colorimetric SRB assay, LOVO-DOX; conditions: Homo sapiens; for LC50 (concentration for 50% cell killing): read-out: LC50; for IC (total growth inhibition): read-out: TGI
Procedure, shortened: as §1

IGROV-ET = test: Inhibition of cell growth by colorimetric SRB assay, IGROV-ET; conditions: Homo sapiens; for IC (total growth inhibition): read-out: TGI
Procedure, shortened: as §1

K-562 = test: Inhibition of cell growth by colorimetric SRB assay, K-562; conditions: Homo sapiens; for IC (total growth inhibition): read-out: TGI
Procedure, shortened: as §1

SK-BR-3 = test: Inhibition of cell growth by colorimetric SRB assay, SK-BR-3; conditions: for CC50 / GI50: Homo sapiens; for TGI: total growth inhibition
Procedure, shortened: as §1

DU-145 = test: Inhibition of cell growth by colorimetric SRB assay, DU-145; conditions: Homo sapiens; for IC (total growth inhibition): read-out: TGI
Procedure, shortened: as §1

IGROV = test: Inhibition of cell growth by colorimetric SRB assay, IGROV; conditions: Homo sapiens; for IC (total growth inhibition): read-out: TGI
Procedure, shortened: as §1

[1] = SK-MEL-28, MEL-28, 48 hours exposure
[2] = HT-29, 48 hours exposure, cell killing, read-out: LC50 (the source's name)
[3] = LOVO, 48 hours exposure, cell killing
[4] = PANC-1, 48 hours exposure, cell killing, read-out: LC50 (the source's name)
[5] = A549, A-549, 48 hours exposure, cell killing, read-out: LC50 (the source's name)
[6] = SK-MEL-28, MEL-28, 48 hours exposure, cell killing, read-out: LC50 (the source's name)
[7] = HELA, 48 hours exposure, cell killing, read-out: LC50 (the source's name)
[8] = LN-caP, 48 hours exposure, cell killing, read-out: LC50 (the source's name)
[9] = LOVO-DOX, 48 hours exposure, cell killing
[10] = IGROV-ET, 48 hours exposure, cell killing, read-out: LC50 (the source's name)
[11] = K562, K-562, 48 hours exposure, cell killing, read-out: LC50 (the source's name)
[12] = SK-BR-3, 48 hours exposure, cell killing, read-out: LC50 (the source's name)
[13] = DU-145, 48 hours exposure, cell killing, read-out: LC50 (the source's name)
[14] = 48 hours exposure, cell killing, read-out: LC50 (the source's name)

## C=C(C(=O)[C@H](COC(C)=O)[C@H](O)C1(C)O[C@@H]1[C@@H](C)/C=C\C)[C@@H](O)CC(=O)CC (stereo partly shown) [Compound 1]
HeLa-APL; 48 h
  GI50: 1.72 µM
HeLa-APL; 48 h, read-out: TGI
  IC (total growth inhibition): 6.23 µM
HT-29; HT-29, 48 h, read-out: LC50
  CC50: 13.4 µM
HT-29; HT-29, 48 hours exposure
  GI50: 1.67 µM
  IC (total growth inhibition): 5.37 µM
LoVo; LoVo, 48 h
  LC50: 12.6 µM
LoVo; LOVO, 48 hours exposure
  GI50: 1.62 µM
  IC (total growth inhibition): 4.87 µM
PANC-1; PANC-1, 48 h, read-out: LC50
  CC50: 21.3 µM
PANC-1; PANC-1, 48 hours exposure
  GI50: 3.33 µM
  IC (total growth inhibition): 8.4 µM
A-549; A549, 48 h, read-out: LC50
  CC50: 23.5 µM
A-549; A549, A-549, 48 hours exposure
  GI50: 1.1 µM
  IC (total growth inhibition): 5.04 µM
SK-MEL-28; SK-MEL-28, 48 h, read-out: LC50
  CC50: 13.6 µM
SK-MEL-28; [1]
  GI50: 2.72 µM
  IC (total growth inhibition): 6.1 µM
HeLa; HeLa, 48 h, read-out: LC50
  CC50: 20.5 µM
HeLa; HELA, 48 hours exposure
  GI50: 1.99 µM
  IC (total growth inhibition): 6.66 µM
LNCaP; 48 h, read-out: LC50
  CC50: ≥ 25.2 µM
LNCaP; LN-caP, 48 hours exposure
  GI50: 1.45 µM
  IC (total growth inhibition): 6.31 µM
LoVo-Dox; 48 h
  LC50 (concentration for 50% cell killing): 21.1 µM
LoVo-Dox; LOVO-DOX, 48 hours exposure
  GI50: 3.13 µM
  IC (total growth inhibition): 8.1 µM
IGROV-ET; 48 h, read-out: LC50
  CC50: 23.7 µM
IGROV-ET; IGROV-ET, 48 hours exposure
  GI50: 3.1 µM
  IC (total growth inhibition): 8.58 µM
K-562; K562, 48 h, read-out: LC50
  CC50: 24.6 µM
K-562; K562, K-562, 48 hours exposure
  GI50: 1.99 µM
  IC (total growth inhibition): 7.36 µM
SK-BR-3; SK-BR-3, 48 h, read-out: LC50
  CC50: 3.43 µM
SK-BR-3; SK-BR-3, 48 hours exposure
  GI50: 0.469 µM
  TGI: 1.11E−05 Molar
DU-145; DU-145, 48 h, read-out: LC50
  CC50: ≥ 25.2 µM
DU-145; DU-145, 48 hours exposure
  GI50: 3.66 µM
  IC (total growth inhibition): 10.2 µM
IGROV; 48 h, read-out: LC50
  CC50: 17.6 µM
IGROV; 48 hours exposure
  GI50: 1.63 µM
  IC (total growth inhibition): 5.67 µM

## C/C=C\[C@H](C)[C@H]1OC1(C)[C@@H](O[Si](C)(C)C(C)(C)C)[C@@H](CO[Si](C)(C)C(C)(C)C)C(=O)[C@H](CO[Si](C)(C)C(C)(C)C)[C@H](CC(=O)CC)O[Si](C)(C)C(C)(C)C (stereo partly shown) [Compound 19a]
HeLa-APL
  CC50: 12.1 µM
HT-29; HT-29, 48 hours exposure
  GI50: 12.1 µM
  IC (total growth inhibition): 12.1 µM
HT-29; [2]
  CC50: 12.1 µM
LoVo; LOVO, 48 hours exposure
  GI50: 12.1 µM
  IC (total growth inhibition): 12.1 µM
LoVo; [3]
  LC50: 12.1 µM
PANC-1; PANC-1, 48 hours exposure
  GI50: 12.1 µM
  IC (total growth inhibition): 12.1 µM
PANC-1; [4]
  CC50: 12.1 µM
A-549; A549, A-549, 48 hours exposure
  GI50: 12.1 µM
  IC (total growth inhibition): 12.1 µM
A-549; [5]
  CC50: 12.1 µM
SK-MEL-28; [1]
  GI50: 12.1 µM
  IC (total growth inhibition): 12.1 µM
SK-MEL-28; [6]
  CC50: 12.1 µM
HeLa; HELA, 48 hours exposure
  GI50: 12.1 µM
  IC (total growth inhibition): 12.1 µM
HeLa; [7]
  CC50: 12.1 µM
LNCaP; LN-caP, 48 hours exposure
  GI50: 12.1 µM
  IC (total growth inhibition): 12.1 µM
LNCaP; [8]
  CC50: 12.1 µM
LoVo-Dox; LOVO-DOX, 48 hours exposure
  GI50: 12.1 µM
  IC (total growth inhibition): 12.1 µM
LoVo-Dox; [9]
  LC50 (concentration for 50% cell killing): 12.1 µM
IGROV-ET; IGROV-ET, 48 hours exposure
  GI50: 12.1 µM
  IC (total growth inhibition): 12.1 µM
IGROV-ET; [10]
  CC50: 12.1 µM
K-562; K562, K-562, 48 hours exposure
  GI50: 12.1 µM
  IC (total growth inhibition): 12.1 µM
K-562; [11]
  CC50: 12.1 µM
SK-BR-3; SK-BR-3, 48 hours exposure
  GI50: 12.1 µM
  TGI: 1.21E−05 Molar
SK-BR-3; [12]
  CC50: 12.1 µM
DU-145; DU-145, 48 hours exposure
  GI50: 12.1 µM
  IC (total growth inhibition): 12.1 µM
DU-145; [13]
  CC50: 12.1 µM
IGROV; 48 hours exposure
  GI50: 12.1 µM
  IC (total growth inhibition): 12.1 µM
IGROV; [14]
  CC50: 12.1 µM

## C/C=C\[C@H](C)[C@H]1OC1(C)[C@@H](O[Si](C)(C)C(C)(C)C)[C@@H](CO[Si](C)(C)C(C)(C)C)C(=O)[C@H](CO[Si](C)(C)C(C)(C)C)[C@@H](CC(=O)CC)O[Si](C)(C)C(C)(C)C (stereo partly shown) [Compound 19b]
HeLa-APL
  CC50: 12 µM
HT-29; HT-29, 48 hours exposure
  GI50: 12 µM
  IC (total growth inhibition): 12 µM
HT-29; [2]
  CC50: 12 µM
LoVo; LOVO, 48 hours exposure
  GI50: 12 µM
  IC (total growth inhibition): 12 µM
LoVo; [3]
  LC50: 12 µM
PANC-1; PANC-1, 48 hours exposure
  GI50: 12 µM
  IC (total growth inhibition): 12 µM
PANC-1; [4]
  CC50: 12 µM
A-549; A549, A-549, 48 hours exposure
  GI50: 12 µM
  IC (total growth inhibition): 12 µM
A-549; [5]
  CC50: 12 µM
SK-MEL-28; [1]
  GI50: 12 µM
  IC (total growth inhibition): 12 µM
SK-MEL-28; [6]
  CC50: 12 µM
HeLa; HELA, 48 hours exposure
  GI50: 12 µM
  IC (total growth inhibition): 12 µM
HeLa; [7]
  CC50: 12 µM
LNCaP; LN-caP, 48 hours exposure
  GI50: 12 µM
  IC (total growth inhibition): 12 µM
LNCaP; [8]
  CC50: 12 µM
LoVo-Dox; LOVO-DOX, 48 hours exposure
  GI50: 12 µM
  IC (total growth inhibition): 12 µM
LoVo-Dox; [9]
  LC50 (concentration for 50% cell killing): 12 µM
IGROV-ET; IGROV-ET, 48 hours exposure
  GI50: 12 µM
  IC (total growth inhibition): 12 µM
IGROV-ET; [10]
  CC50: 12 µM
K-562; K562, K-562, 48 hours exposure
  GI50: 12 µM
  IC (total growth inhibition): 12 µM
K-562; [11]
  CC50: 12 µM
SK-BR-3; SK-BR-3, 48 hours exposure
  GI50: 6.15 µM
  TGI: 1.17E−05 Molar
SK-BR-3; [12]
  CC50: 12 µM
DU-145; DU-145, 48 hours exposure
  GI50: 12 µM
  IC (total growth inhibition): 12 µM
DU-145; [13]
  CC50: 12 µM
IGROV; 48 hours exposure
  GI50: 12 µM
  IC (total growth inhibition): 12 µM
IGROV; [14]
  CC50: 12 µM
